Columns and labels:
[1] = heat activated transfer of image dye (coupler M-1, developer CD-3) through gelatin interlayer to polymeric dye receiver, Status A green density
Procedure: The following 17 examples are prepared to examine the ability of materials to effect the transfer of image dye through intervening layers of gelatin binder into a polymeric dye receiver layer and are described by the coating format shown in FIG. 2. The first layer (FIG. 2, layer 14) contains gelatin binder and the material to be tested as a thermal solvent while the upper layer (FIG. 2, layer 16) contains the image generating chemistry comprising a silver chloride emulsion and a dispersion of a dye generating coupler in a gelatin binder. A third, protective overcoat, layer (FIG. 2, layer 15) containing gelatin and hardener is applied over the first two gelatin test layers.
Examples 1 and 2 describe in detail the preparation of the solutions and dispersions used in these examples. Examples 3 and 4 describe the same film samples processed in a second developer. Example 1 contains no added material in the first gelatin layer. Example 2 is an example of a compound of our invention according to formula I.
Gelatin Interlayer Melt Preparation. This is an interlayer consisting of only gelatin that serves as a control for comparison of the effect of added materials on transfer of heat-transferable dyes through gelatin layers. […]

[2] = heat activated transfer of image dye (yellow coupler Y-1, developer CD-3) through gelatin interlayer to polymeric dye receiver, Status A blue density; conditions: 3 passes; coupler Y-1, CD-3
Procedure: (§1) Heat Activated Image Transfer. Dried integral films are laminated with gelatin subbed ESTAR™ film base and passed through a set of heated rollers at 0.635 cm./sec. with roller surface temperatures of 110° C. and a pressure of 140 kPa. The two film bases are separated; the gelatin layers adhere to the gelatin subbed ESTAR™ base and are thus separated from the polymeric dye receiver layer and its support. Status A reflection densitometry is obtained on the polymeric dye-receiver layer coated on a reflective support. These density values determined with the appropriate Status A filter are given in Example 1 in Table III.
Thermal Solvent Test Employing a Yellow Dye Forming Coupler. Three film examples are prepared in a manner analogous to examples 1 and 2 above, using a yellow dye forming coupler, Y-1, and a blue sensitized cubic emulsion in place of M-1 and a green sensitized emulsion, respectively. […]
For all three example films the dye density transferred to the dye-receiverlayer in the absence of a thermal processing step (0-pass) is quite small indicating the absence of significant transfer under aqueous processing. […] For film example 15 in which the interlayer contains both gelatin and the thermal test material, TS-1, there is a substantial transfer of image dye as measured by the blue density. […]

[3] = heat activated transfer of image dye (yellow coupler Y-1, developer CD-2) through gelatin interlayer to polymeric dye receiver, Status A blue density; conditions: coupler Y-1, CD-2
Procedure: as §1
Thermal Solvent Test Employing a Yellow Dye Forming Coupler. Three film examples are prepared in a manner analogous to examples 1 and 2 above, using a yellow dye forming coupler, Y-1, and a blue sensitized cubic emulsion in place of M-1 and a green sensitized emulsion, respectively. In this example TS-1 is compared with no added hydroxybenzene compound and with a hydroxybenzene without a hydrogen bond accepting functional group (CS-1). The thermal solvent [drawing 8] test layer is coated at gelatin laydown of 1.40 g/m^2 and a thermal solvent test compound at 1.30 g/m^2. The dye generating layer is coated at 1.40 g/m^2 of gelatin, 0.53 g/m^2 of coupler Y-1 and 0.38 g/m^2 of Ag. The photographic development and thermal processing is as described in example 2. […]

SMILES	transfer of the dye density in the original image ([1]; 1-pass) [%]	transfer of the dye density in the original image ([1]; 3-pass) [%]	transfer of the integral dye density to receiver [2]	transfer of the integral dye density to the receiver layer [3]
CCCCCCCCCCS(=O)(=O)c1ccc(O)cc1 [TS-1, 4-n-Decylsulfonylphenol]	45	71	–	–
CCCCCCCCCCCCc1ccc(O)cc1 [CS-1]	–	–	less than 6%	less than 4%

From patent US5468587A, “Hydrogen bond accepting groups on thermal solvents for image separation systems” (Eastman Kodak Company, priority 1993, dated 1995)
